Experimental findings from article PMC7156724, “Potent BRD4 inhibitor suppresses cancer cell-macrophage interaction” (Nature Communications, 2020) are described below.

Molecules are shown by their SMILES. “And” between values parts separate entries of the source, which are not always exact repeats. Equal entries are not always repeated.

Data set [1] in a line: Metabolic stability assay, rat liver microsomes. The following applies: for Remaining in rat liver microsomes (Sup Fig.6b): in % (unit assumed). The procedure:
7. Metabolic stability assay. The metabolic profile of NHWD-870 was determined using mouse, rat, dog, monkey, and human liver microsomes using the protocols […]
No. Compound ID Exat Mass Stock Conc.
1) 100 mM potassium phosphate buffer, PH7.4; 2) 10mM MgCI2
1) Intermediate solution: Dilute 5 μL of compound or control from stock solution (10 mM) with 45 uL DMSO,then mixed with 450 μL 1:1 Methanol/Water (Conc.: 10 0 […]
2) Working solution: Dilute 50 μL from intermediate solution with 450 μL 100 mM potassium phosphate buffer (Conc.: 10 μM, 4.5%MeOH)
(3) NADPH regenerating system (final Isocitric dehydrogenase conc.= 1 unit/mL at […]
1) β-Nicotinamide adenine dinucleotide phosphate, Vendor: sigma Cat. No. N0505
2) Isocitric acid, Vendor: Sigma Cat. No. I1252
3) Isocitric dehydrogenase, Vendor: sigma Cat. No. I2002
(4) Liver microsome solution preparation (final concentration o f 0.5 mg protein/mL) […]
Cold ACN including 100 ng/mL Tolbutamide and 100 ng/mL Labetalol as internal […]
1) Add 10 μL compound or control working solution/well to all plates (T0, T5, T10, T20, T30, T60, NCF60) except matrix blank.
2) Dispense 680 μL/well microsome solution to 96-well plate as reserv oir according to […]
plate map. Then add 80 μL/well to every plate by Apricot, incubate the mixture of microsome solution and compound at 37℃ for about 10 min.
3) Add 10 μL 100 mM potassium phosphate buffer/well to NCF60, incubate at 37℃, […]
4) After pre-warming, dispense 90 μL/well NADPH regenerating system to 96-well plate as reservoir according to the plate map. Then add 10 μL/well to every plate by Apricot to start reaction.
5) Incubate at 37℃, start timer 2.
6) Add 300 (μL/well) stop solution (cold in 4℃, including 100 ng/mL Tolbutamide and 100 ng/mL Labetalol) to terminate the reaction.
7) The sampling plates are shaked for approx 10 min.
8) Samples are centrifuged at 4000 rpm for 20 min under 4℃.
9) While centrifuging, load 8×new 96-well plate with 300 μL HPLC water, then transfer 100 μL supernatant, mixed for LC/MS/MS.
Use equation of first order kinetics to calculate t1/2 and Clin t(mic): […]
Equation of first order kinetics: […]

The test system of the next data set is ES-2 cells. Put plainly: 3D matrigel assay, ES-2. Format: cell-based, human. The following applies: ES-2, 100 nM. As for the experimental part:
Fig. 2 NHWD-870 inhibited BRD4 phosphorylation and c-MYC expression, and suppressed cell growth. a Representative western blot analysis of p-BRD4 (s484/488), BRD4, c-MYC, and GAPDH after treatment of MDA-MB231, SUM159, A2780 ES-2, and H526 cells with JQ-1 or NHWD-870 at the indicated concentrations for 24 h. GAPDH served as the loading control. Selected from three independent experiments. b MTT assays of H526, A2780, ES-2, and MDA-MB231 cells treated with JQ-1 or NHWD-870 at the indicated concentrations for 5 days. Data are presented as mean ± SEM from three independent experiments. c, d Clonogenic assays of H526, A2780, ES-2 and MDA-MB231 cells treated with 250 nM JQ-1 or NHWD-870 for 5 days. Shown are representative images (c) and quantification of colonies (d). […] Shown are representative images (e) and quantification of relative colony sizes (f). Scale bar, 50 μm. Data are presented as mean ± SEM from five independent experiments. p values were calculated using two-tailed, unpaired t tests in this figure. **p < 0.01; ***p < 0.001. Source data are provided as a Source Data file.
Single clone spheroids were generated by culturing A2780, ES-2, H526 and MDA-MB231 cells for 16 h as a hanging drop over a humidified plate in a CO2 incubator in their corresponding complete media. […] The relative spheroid sizes were measured with ImageJ version 1.52s using the 15 representative spheroids.

The term CLint scaled denotes a measure of how fast metabolising enzymes remove a compound, apart from limits set by blood flow. High values mean rapid turnover, low ones slow turnover. The term half-life denotes the time needed for the level to fall by half in the phase considered. A lower half-life goes with fast loss. Broadly, the microsomal CLint is a measure of how fast metabolising enzymes remove a compound, apart from limits set by blood flow. Higher therefore signals rapid turnover.

Turning to `Cc1nnn(C)c1-c1cnc2c3c4cnn(C)c4ccc3n([C@H](c3ccccc3)C3CCOCC3)c2c1` [NHWD-870], in data set [1] (rat liver microsomes), the “Remaining (T=60min)” value is reported as 22.3%. Besides, the “Remaining (*NCF=60min)” value in data set [1] (rat liver microsomes, no cofactor) stood at 76.0%. Further, the CLint scaled at 1 µM in data set [1] (rat, liver microsomes, pH 7.4) was 92 mL/min/kg. Further, the half-life at 1 µM in data set [1] (rat, liver microsomes, pH 7.4) stood at 27.1 min. In data set [1] (rat, microsomes, pH 7.4), this compound had an intrinsic clearance (microsomal CLint) at 1 µM of 51.1 µL/min/mg. In addition, the “Remaining in rat liver microsomes (Sup Fig.6b)” value in data set [1] (time 0) is reported as 100; in data set [1] (time 5), 91.753; in data set [1] (time 10) it was 75.9; in data set [1] (time 20) it was 52.356; in data set [1] (time 30), 42.131; in data set [1] (time 60), 22.275. Besides, the “Clone Size (relative colony size, 3D matrigel assay)” value with ES-2 cells is 35.3 and 32.7 and 30.1 and 25.5 and 23.9.
